For experiment [1], the system named is MCF-7 cells. As to the kind of experiment: BrdU incorporation proliferation assay in MCF-7 cells transfected with MP1 expression vector or empty vector. The experiment is classed as cell-based, human. Particulars: ligand for 48 h, BrdU for the final 5 h, FIG. 6. How it is done: The ER has both genomic and non-genomic activities, and its activity in transcription assays may not fully represent its ability to regulate cell proliferation. […] To label proliferating cells, BrdU (which is incorporated into DNA during DNA synthesis) was added to the cultures for the final 5 h of incubation. Cells were then fixed, labeled with a fluorescent anti-BrdU antibody, and the percentage of cells that incorporated BrdU (ie, were proliferating) was determined.
Background: Dividing cells build labelled thymidine or BrdU into new DNA.

Experiment [2] deals with Flag-ER. As to the kind of experiment: Inducible 3' Flag-ER expression (ARGENT system) in stably transfected MCF-7 derivative, Western blotting. The experiment is classed as cell-based, human. Particulars: treated six hours, Western blot, FIG. 2. An excerpt:
To tightly regulate expression of the Flag-ER gene, the Ariad “ARGENT” inducible gene expression system (25) (www.ariad.com) was used. This system allows for tight and specific regulation of a target gene.
To identify physiologically relevant ER-interacting proteins, the MCF-7 cell line was used. […] First, a stable derivative of MCF-7 in which target genes can be inducibly expressed was constructed. The construction of this cell line and an example of its use have been previously described (27). Next, the 5′ and 3′ Flag-ER constructs were subcloned into the target vector, and these constructs were stably transfected into the MCF-7 derivative described above. […] Stable transfectants containing either 3′ Flag-ER or empty vector were treated as indicated (in FIG. 2) for six hours, and lysates were analyzed by Western blotting (WB) with antibodies to ER, Flag, or Actin.
On the technique in general: Immunoblotting shows a protein as a band on a membrane.

Experiment [3] addresses T1, ER (Homo sapiens, UniProt P03372).
T1 sequence (P03372 1-595): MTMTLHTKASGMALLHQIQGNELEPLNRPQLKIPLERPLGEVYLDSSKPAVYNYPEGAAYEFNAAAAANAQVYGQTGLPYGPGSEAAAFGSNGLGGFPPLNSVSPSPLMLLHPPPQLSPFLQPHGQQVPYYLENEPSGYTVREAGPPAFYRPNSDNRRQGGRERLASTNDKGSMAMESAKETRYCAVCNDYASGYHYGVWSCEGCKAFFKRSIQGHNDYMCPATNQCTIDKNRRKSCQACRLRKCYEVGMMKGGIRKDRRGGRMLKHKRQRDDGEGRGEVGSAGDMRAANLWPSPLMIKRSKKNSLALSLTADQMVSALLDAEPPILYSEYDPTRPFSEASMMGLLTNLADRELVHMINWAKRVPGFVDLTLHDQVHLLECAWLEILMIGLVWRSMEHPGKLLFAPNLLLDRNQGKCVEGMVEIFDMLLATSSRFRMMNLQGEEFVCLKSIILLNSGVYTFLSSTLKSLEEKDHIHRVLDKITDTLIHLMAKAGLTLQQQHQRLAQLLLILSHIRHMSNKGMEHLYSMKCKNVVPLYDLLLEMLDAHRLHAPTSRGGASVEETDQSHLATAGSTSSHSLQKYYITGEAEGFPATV
Particulars: MCF-7 cells, 24 h in medium lacking E2, ligand for 3 h; MP1 vs empty vector; FIG. 5.

Experiment [4] has as its target T2, ER/MP1 complex (Homo sapiens, UniProt P03372).
T2 sequence (P03372 1-595): T1 sequence (P03372 1-595)
Particulars: MCF-7 cells pre-treated in absence of E2, then ligand for 2 h; IP with ER or MP1 antibody; FIG. 4. How it is done: One limitation to inducible expression systems is that proteins are expressed at very high levels, and complexes may form that are not physiologically relevant. […] Cell lysates were prepared and precipitated with either 0-ER (Labvision/NeoMarker) or 0-MP1 (Santa Cruz) antibody and protein G agarose beads.

For the molecule `CC/C(=C(\c1ccccc1)c1ccc(OCCN(C)C)cc1)c1ccccc1` [Tam, tamoxifen], the “effect of MP1 overexpression on proliferation (percentage of cells that incorporated BrdU) in the presence of ligand” value in experiment [1] was “dramatically increases proliferation”.
As to `CO[C@H]1[C@@H](O)[C@H](C)C[C@H](C)/C=C/C=C/C=C(\C)[C@@H](c2c[nH]c3c(C)cccc23)C[C@@H]2CC[C@@H](C)[C@@](O)(O2)C(=O)C(=O)N2CCCC[C@H]2C(=O)O[C@H]([C@H](C)C[C@@H]2CC[C@@H](O)[C@H](OC)C2)C[C@H](O)[C@H](C)/C=C(\C)[C@H]1O` [AP21967], in experiment [2] (cells containing 3' Flag-ER), the “Flag-ER expression from the transfected gene” value is “highly induced”. The “endogenous ER expression” value in experiment [2] (vector containing cells) was “did not alter this expression”.
Turning to `C[C@]12CC[C@@H]3c4ccc(O)cc4C[C@@H](CCCCCCCCC[S+]([O-])CCCC(F)(F)C(F)(F)F)[C@H]3[C@@H]1CC[C@@H]2O` (some centres unmarked) [ICI, ICI 182,780], in experiment [3], the “effect of MP1 co-transfection on ER activity (ERE-Luc) in the presence of ligand” value was “not”. In addition, the “co-precipitation of MP1 with ER (ER/MP1 complex formation)” value in experiment [4] is listed as “not”.
